Results published in patent US5656662A, “Synthesis of optically pure 4-alkenyl- or 4-alkanyl-2-hydroxytetronic acids” (The Ohio State University Research Foundation, priority 1995, dated 1997).

Tests used:
Format in all cases: cell-based
Design in all cases: key: NE: No effect; INHIB: Inhibition; STIM: Stimulation; IC40: 40% Inhibitory Concentration; EC50: 50% Effective Concentration; TC: Tolerated Concentration; IA: Interferes with Assay
superoxide anion = experiment: Superoxide anion release from purified human monocytes; conditions: zymosan
Method: (§1) This assay measures the ability of the test compound to modulate the ability of purified human monocytes to release superoxide anions in response to a zymosan. Compounds are tested at four dilutions over a range of three log10 concentrations. Monocyte-compound cultures are treated with zymosan to stimulate anion production. The amount of superoxide anion produced is determined by the culture's ability to reduce cytochrome C, as measured colorimetrically. The assay is carried out in a 96-well format in triplicate and results are expressed in relation to baseline unstimulated and maximum controls. Appropriate reference controls are run with each assay.
as §1, with “minimum” for “maximum”

GM-CSF = GM-CSF expression from purified human monocytes
Method: This assay determines the effect of test compounds on the expression of GM-CSF from purified human monocytes. Compounds are tested for their ability to downregulate the production of GM-CSF in activated monocytes, or upregulate secretion of GM-CSF in unstimulated monocytes. Test compounds are incubated for sixteen hours with purified human monocytes at four dilutions over a range of three log10 concentrations. Where appropriate, lipopolysaccharide (LPS) is used to stimulate the monocytes.
The level of GM-CSF in the resultant supernatants is quantitated in a solid phase Enzyme-linked Immunoassay (EIA) performed in a 96 well format. GM-CSF present in the samples is captured by a specific monoclonal antibody immobilized on the well, and probed with an anti-GM-CSF polyclonal antibody conjugated to horseradish peroxidase, followed by an appropriate substrate. The levels of GM- CSF are determined by interpolation of the resultant color change in the substrate from a standard curve. All supernatants are tested in duplicate with controls and standards.

PAF = PAF production by purified human monocytes
Method: (§2) This assay measures the ability of test compounds to modulate the amount of PAF produced by purified human monocytes. Compounds are tested for their ability to downregulate the secretion of PAF from activated monocytes, or upregulate secretion of PAF from unstimulated monocytes. Test compounds are incubated for ninety minutes with purified human monocytes ar four dilutions over a range of three log10 concentrations. Where appropriate, zymosan is used to stimulate the monocytes.
The level of PAF in the resultant supernatants is quantitated by immunoassay performed in a 96 well format. PAF levels modulated by unknown compounds are determined by interpolation from a standard curve. All compounds are tested in duplicate with controls and standards.
as §2, with “by purified,” for “by purified”

[1] = test system: adhesion of purified human monocytes to human umbilical vein endothelial cell (HUVEC) cultures; experiment: Adhesion of purified human monocytes to HUVEC cultures; conditions: STIMULATED
Method: This assays measures the ability of test compounds to modulate adhesion of purified human monocytes to human umbilical vein endothelial cell (HUVEC) cultures. HUVECs are cultured to confluence in 96-well plates. Purified human monocytes are labelled with fluorescent dye. Triplicate cultures of HUVECs and monocytes are treated with four dilutions of test compound over a range of three log10 concentrations, in addition to stimulated and unstimulated controls. One hour after treatment, TNFα is added to HUVEC cultures to stimulate production of adhesion molecules. After a twelve hour incubation, the treated monocytes are added to their corresponding HUVEC cultures and incubated for ten minutes. The stimulation index (S.I.) is determined by comparing the fluorescence of treated cultures to untreated controls using a fluorometric readout in a 96-well format.

purified human monocytes = experiment: Chemotactic response of purified human monocytes; conditions: STIMULATED
Method: This assay measures the ability of test compounds to modulate the chemotactic response of purified human monocytes in response to a chemoattractant. Compounds are tested at four dilutions over a range of three log10 concentrations. The test compounds are combined with monocytes labeled with a fluorescent indicator and placed in the top wells of a chemotaxis chamber, above an optimized concentration of a monocyte chemoattractant placed in the wells below, and separated by a microporous filter. After sixty minutes, the migration of cells through the filter is quantified flurorometrically, and expressed in relation to spontaneous and maximum controls. All tests are carried out in triplicate.

CCCCCCCCCCCCCC/C=C\CC[C@@H]1OC(=O)C(O)=C1O [(S)-3,4-Dihydroxy-5-[(Z)-3-octadecenyl]-2(5H)-furanone]
EFFECT on SUPEROXIDE (superoxide anion): IA | EFFECT on GMCSF (GM-CSF; STIMULATED): NE | EFFECT on GMCSF (GM-CSF; UNSTIMULATED): NE | EFFECT on PAF (PAF; STIMULATED): NE | EFFECT on PAF (PAF; UNSTIMULATED): NE | EFFECT on ADHESION [1]: NE | EFFECT on CHEMOTAXIS (purified human monocytes): NE
